Laboratory results as given in PubChem BioAssay AID2060510 (Molecular Pharmacology Branch, DTP, NCI, 2025).

Tested on: 439559-082-T-J2-PDC spheroids viability
Assay: Anticancer human tumor 439559-082-T-J2-PDC patient-derived colon adenocarcinoma cell line growth inhibition [GQUAD]
Conditions: for IC50: curve of first compound; for viability, T/C: stronger effect = lower value
Method in brief: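 Tumor cells were grown as complex spheroids with HUVEC endothelial cells and mesenchymal stem cells as stroma. G-quadruplex stabilizers were combined with targeted agents over half-log dilutions from near the clinical Cmax, or from 10 microM.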

[1] = second compound 0.0316 µM, first compound 0.0316 µM
[2] = second compound 0.0316 µM, first compound 0.1 µM
[3] = second compound 0.0316 µM, first compound 0.316 µM
[4] = second compound 0.0316 µM, first compound 1 µM
[5] = second compound 0.0316 µM, first compound 3.16 µM
[6] = second compound 0.0316 µM, first compound 10 µM
[7] = second compound 0.1 µM, first compound 0.0316 µM
[8] = second compound 0.1 µM, first compound 0.1 µM
[9] = second compound 0.1 µM, first compound 0.316 µM
[10] = second compound 0.1 µM, first compound 1 µM
[11] = second compound 0.1 µM, first compound 3.16 µM
[12] = second compound 0.1 µM, first compound 10 µM
[13] = second compound 0.316 µM, first compound 0.0316 µM
[14] = second compound 0.316 µM, first compound 0.1 µM
[15] = second compound 0.316 µM, first compound 0.316 µM
[16] = second compound 0.316 µM, first compound 1 µM
[17] = second compound 0.316 µM, first compound 3.16 µM
[18] = second compound 0.316 µM, first compound 10 µM
[19] = second compound 1 µM, first compound 0.0316 µM
[20] = second compound 1 µM, first compound 0.1 µM
[21] = second compound 1 µM, first compound 0.316 µM
[22] = second compound 1 µM, first compound 1 µM
[23] = second compound 1 µM, first compound 3.16 µM
[24] = second compound 1 µM, first compound 10 µM
[25] = second compound 3.16 µM, first compound 0.0316 µM
[26] = second compound 3.16 µM, first compound 0.1 µM
[27] = second compound 3.16 µM, first compound 0.316 µM
[28] = second compound 3.16 µM, first compound 1 µM
[29] = second compound 3.16 µM, first compound 3.16 µM
[30] = second compound 3.16 µM, first compound 10 µM
[31] = second compound 10 µM, first compound 0.0316 µM
[32] = second compound 10 µM, first compound 0.1 µM
[33] = second compound 10 µM, first compound 0.316 µM
[34] = second compound 10 µM, first compound 1 µM
[35] = second compound 10 µM, first compound 3.16 µM
[36] = second compound 10 µM, first compound 10 µM
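Also: spheroids exposed to the agents for 7 days before readout.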
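For viability, T/C in this document: percent of luminescence signal in DMSO vehicle wells taken as 100% viability.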

**Q.** Which IC50 (second compound 0.0316 µM) does the source give for CC(C)n1c(=O)n(C)c2cnc3cc(F)c(-c4ccc(OCCCN5CCCCC5)nc4)cc3c21 + CN(C)c1ccc(Nc2c3ccc(NC(=O)CCN4CCCC4)cc3nc3cc(NC(=O)CCN4CCCC4)ccc23)cc1 here?
**A.** Its IC50 is over 10 µM.

**Q.** What about the IC50 (second compound 0.1 µM) of the same molecule?
**A.** Its IC50 is over 10 µM.

**Q.** And the IC50 (second compound 0.316 µM)?
**A.** The IC50 was over 10 µM.

**Q.** And the IC50 (second compound 1 µM)?
**A.** The IC50 was over 10 µM.

**Q.** And the IC50 (second compound 3.16 µM)?
**A.** Its IC50 is over 10 µM.

**Q.** And the IC50 (second compound 10 µM)?
**A.** The IC50 was over 10 µM.

**Q.** What about the viability, T/C [1] of the same molecule?
**A.** Its viability, T/C is 108%.

**Q.** What about the viability, T/C [2] of the same molecule?
**A.** Its viability, T/C is 98.2%.

**Q.** And the viability, T/C [3]?
**A.** Its viability, T/C is 118%.

**Q.** And the viability, T/C [4]?
**A.** The viability, T/C was 116%.

**Q.** What about the viability, T/C [5] of the same molecule?
**A.** Its viability, T/C is 122%.

**Q.** And the viability, T/C [6]?
**A.** The viability, T/C was 91.8%.

**Q.** And the viability, T/C [7]?
**A.** Its viability, T/C is 105%.

**Q.** And the viability, T/C [8]?
**A.** Its viability, T/C is 112%.

**Q.** And the viability, T/C [9]?
**A.** Its viability, T/C is 115%.

**Q.** What about the viability, T/C [10] of the same molecule?
**A.** Its viability, T/C is 119%.

**Q.** And the viability, T/C [11]?
**A.** The viability, T/C was 113%.

**Q.** What about the viability, T/C [12] of the same molecule?
**A.** Its viability, T/C is 91.9%.

**Q.** And the viability, T/C [13]?
**A.** Its viability, T/C is 94.5%.

**Q.** What about the viability, T/C [14] of the same molecule?
**A.** Its viability, T/C is 113%.

**Q.** What about the viability, T/C [15] of the same molecule?
**A.** Its viability, T/C is 115%.

**Q.** What about the viability, T/C [16] of the same molecule?
**A.** Its viability, T/C is 122%.

**Q.** What about the viability, T/C [17] of the same molecule?
**A.** Its viability, T/C is 117%.

**Q.** And the viability, T/C [18]?
**A.** Its viability, T/C is 100%.

**Q.** And the viability, T/C [19]?
**A.** The viability, T/C was 101%.

**Q.** And the viability, T/C [20]?
**A.** Its viability, T/C is 105%.

**Q.** What about the viability, T/C [21] of the same molecule?
**A.** Its viability, T/C is 111%.

**Q.** And the viability, T/C [22]?
**A.** Its viability, T/C is 113%.

**Q.** What about the viability, T/C [23] of the same molecule?
**A.** Its viability, T/C is 109%.

**Q.** And the viability, T/C [24]?
**A.** The viability, T/C was 99.6%.

**Q.** And the viability, T/C [25]?
**A.** Its viability, T/C is 105%.

**Q.** And the viability, T/C [26]?
**A.** The viability, T/C was 113%.

**Q.** And the viability, T/C [27]?
**A.** Its viability, T/C is 121%.

**Q.** What about the viability, T/C [28] of the same molecule?
**A.** The viability, T/C was 108%.

**Q.** What about the viability, T/C [29] of the same molecule?
**A.** Its viability, T/C is 117%.

**Q.** What about the viability, T/C [30] of the same molecule?
**A.** The viability, T/C was 83.5%.

**Q.** And the viability, T/C [31]?
**A.** The viability, T/C was 100%.

**Q.** What about the viability, T/C [32] of the same molecule?
**A.** The viability, T/C was 92%.

**Q.** What about the viability, T/C [33] of the same molecule?
**A.** Its viability, T/C is 99%.

**Q.** And the viability, T/C [34]?
**A.** Its viability, T/C is 112%.

**Q.** What about the viability, T/C [35] of the same molecule?
**A.** Its viability, T/C is 112%.

**Q.** What about the viability, T/C [36] of the same molecule?
**A.** The viability, T/C was 59.4%.

**Q.** What does the source list for O=C(c1cc(Cc2n[nH]c(=O)c3ccccc23)ccc1F)N1CCN(C(=O)C2CC2)CC1 + CN(C)c1ccc(Nc2c3ccc(NC(=O)CCN4CCCC4)cc3nc3cc(NC(=O)CCN4CCCC4)ccc23)cc1?
**A.** IC50 (second compound 0.0316 µM): > 10 µM; IC50 (second compound 0.1 µM): > 10 µM; IC50 (second compound 0.316 µM): > 10 µM; IC50 (second compound 1 µM): > 10 µM; IC50 (second compound 3.16 µM): > 10 µM; IC50 (second compound 10 µM): > 10 µM; viability, T/C [1]: 101%; viability, T/C [2]: 92.1%; viability, T/C [3]: 102%; viability, T/C [4]: 99.6%; viability, T/C [5]: 94.4%; viability, T/C [6]: 95.5%; viability, T/C [7]: 101%; viability, T/C [8]: 96.6%; viability, T/C [9]: 99.2%; viability, T/C [10]: 97.9%; viability, T/C [11]: 101%; viability, T/C [12]: 87.3%; viability, T/C [13]: 96.2%; viability, T/C [14]: 104%; viability, T/C [15]: 98.5%; viability, T/C [16]: 96.2%; viability, T/C [17]: 100%; viability, T/C [18]: 90.8%; viability, T/C [19]: 98.3%; viability, T/C [20]: 95.1%; viability, T/C [21]: 95.3%; viability, T/C [22]: 97.6%; viability, T/C [23]: 98.5%; viability, T/C [24]: 107%; viability, T/C [25]: 103%; viability, T/C [26]: 99.7%; viability, T/C [27]: 94.9%; viability, T/C [28]: 101%; viability, T/C [29]: 99.1%; viability, T/C [30]: 99.7%; viability, T/C [31]: 105%; viability, T/C [32]: 96.8%; viability, T/C [33]: 104%; viability, T/C [34]: 93%; viability, T/C [35]: 108%; viability, T/C [36]: 94.9%
